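Method: 48-hour compound exposure of cells in 96-well plates, five concentrations, linear interpolation of endpoints. GI50 = concentration required for 50% inhibition of growth. TGI denotes the concentration required for complete inhibition of growth.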
Tests used:
Test in all cases: DTP human tumour cell line panel, 48 h
[1] = system: UO-31 renal
[2] = system: SF-295 CNS
[3] = system: NCI-H226 lung
[4] = system: T-47D breast
[5] = system: HCT-116 colon
[6] = system: TK-10 renal
[7] = system: IGROV1 ovarian
[8] = system: UACC-62 melanoma
[9] = system: MALME-3M melanoma
[10] = system: NCI-H460 lung
[11] = system: SNB-75 CNS
[12] = system: HT29 colon
[13] = system: HOP-92 NSCLC
[14] = system: HOP-62 NSCLC
[15] = system: DU-145 prostate
[16] = system: HS 578T breast
[17] = system: MDA-MB-231 breast
[18] = system: NCI-H522 lung
[19] = system: CAKI-1 renal
[20] = system: RXF 393 renal
[21] = system: SF-539 CNS
[22] = system: NCI/ADR-RES ovarian
[23] = system: SW-620 colon
[24] = system: A498 renal
[25] = system: COLO 205 colon
[26] = system: HL-60(TB) leukemia
[27] = system: SK-MEL-28 melanoma
[28] = system: OVCAR-5 ovarian
[29] = system: OVCAR-4 ovarian
[30] = system: ACHN renal
[31] = system: SK-OV-3 ovarian

`CN(C)c1ccc(C(Cc2ccc3ccccc3n2)Cc2ccc3ccccc3n2)cc1` showed a GI50 [1] of 1.96 µM, a TGI [1] of over 100 µM and a GI50 [2] of 3.26 µM. It also gave a TGI [2] of over 100 µM, a GI50 [3] of 4.4 µM and a TGI [3] of over 100 µM. For the same compound, the GI50 [4] was 1.71 µM, the TGI [4] was over 100 µM and the GI50 [5] was 2.64 µM. For the same compound, the TGI [5] was over 100 µM, the GI50 [6] was 4.93 µM and the TGI [6] was over 100 µM. For the same compound, the GI50 [7] was 2.57 µM, the TGI [7] was over 100 µM and the GI50 [8] was 3.77 µM. For the same compound, the TGI [8] was over 100 µM, the GI50 [9] was 1.96 µM and the TGI [9] was over 100 µM. For the same compound, the GI50 [10] was 3.14 µM, the TGI [10] was over 100 µM and the GI50 [11] was 3.24 µM. It also gave a TGI [11] of over 100 µM, a GI50 [12] of 3.83 µM and a TGI [12] of over 100 µM. It also gave a GI50 [13] of 2.19 µM, a TGI [13] of 6.91 µM and a GI50 [14] of 5.84 µM. For the same compound, the TGI [14] was over 100 µM, the GI50 [15] was over 100 µM and the TGI [15] was over 100 µM. The GI50 [16] was 6.22 µM, the TGI [16] was over 100 µM and the GI50 [17] was 5.41 µM. It also gave a TGI [17] of over 100 µM, a GI50 [18] of 3.4 µM and a TGI [18] of over 100 µM. The GI50 [19] was 2.2 µM, the TGI [19] was over 100 µM and the GI50 [20] was 3.48 µM. It also gave a TGI [20] of 9.11 µM, a GI50 [21] of 4.74 µM and a TGI [21] of over 100 µM.

For `O=C(Nc1ccc2ncnc(Nc3ccc(Oc4cccc(F)c4)c(Cl)c3)c2c1)c1ccc(CNCCO)cc1`, the GI50 [3] was 19.7 µM, the TGI [3] was 56.1 µM and the GI50 [22] was 7.2 µM. For the same compound, the TGI [22] was 36.9 µM, the GI50 [23] was 1.83 µM and the TGI [23] was 3.52 µM. For the same compound, the GI50 [24] was 2.58 µM, the TGI [24] was 23.4 µM and the GI50 [8] was 1.7 µM. The TGI [8] was 3.07 µM, the GI50 [9] was 1.52 µM and the TGI [9] was 2.93 µM. The GI50 [25] was 1.8 µM, the TGI [25] was 3.56 µM and the GI50 [26] was 2.06 µM. It also gave a TGI [26] of 4.74 µM, a GI50 [15] of 1.8 µM and a TGI [15] of 3.44 µM. The GI50 [16] was 1.64 µM, the TGI [16] was 4.42 µM and the GI50 [17] was 1.73 µM. For the same compound, the TGI [17] was 3.27 µM, the GI50 [27] was 1.69 µM and the TGI [27] was 3.08 µM. For the same compound, the GI50 [21] was 1.62 µM, the TGI [21] was 3.01 µM and the GI50 [28] was 1.63 µM. The TGI [28] was 3.17 µM, the GI50 [29] was 1.88 µM and the TGI [29] was 4.81 µM. For the same compound, the GI50 [30] was 1.59 µM, the TGI [30] was 3.05 µM and the GI50 [31] was 1.14 µM. For the same compound, the TGI [31] was 2.53 µM.
